Laboratory results taken from patent publication US6004999A, “Triptolide derivatives useful in the treatment of autoimmune diseases” (priority 1998, dated 1999).
In brackets after ≈: the same amount, converted by molar mass.

Assays:
[1] = test system: immunosuppressive activity; conditions: in conjunction with another immunosuppressive agent (cyclosporin A, FK506, etc.); WO 94/26265; cited from earlier work
[2] = test system: Jurkat E6-1 cell line or lymphocytes prepared from fresh human blood; test: Cell viability (MTT mitochondrial enzyme assay); type: cell-based; conditions: cell viability after 16-24 hours incubation; MTT 4 hours
Experimental: (§1) Jurkat E6-1 cell line (ATCC), a human leukemic T cell line or lymphocytes prepared from fresh human blood, are grown in complete culture medium consisting of RPMI-1640 (Mediatech) supplemented with 10% v/v fetal bovine serum (HyClone, Logen, Vermont), penicillin (100 units/mL), streptomycin ([…]), and 2mM L-glutamine (GIBCO, Grand Island, N.Y.). The cells are grown to a concentration of between 1.2 to 1.8×10^6 cells/mL before use. The cells are then centrifuged at low speed and resuspended to a concentration of 1.25×10^6 cells/mL in fresh medium.
(§2) The compounds to be tested are dissolved in DMSO, and water is added to make a 50% DMSO/water solution. The compounds are then diluted in sterile water such that the DMSO concentrations are less then 0.05%. The cells at a concentration of 1.25×10^6 cells/mL are stimulated with phytohemagglutinin 10 μg/mL (PHA) and 10^-8 M phorbol ester (12-O-tetradecanoylphorbol 13-acetate: TPA), (Sigma, St. Louis, Mo.). The compounds are then added and the cells are plated in flat-bottom tissue culture plates (Falcon, Lincoln Park, N.J.), with 250,000 cells/well. Plates are then incubated at 37° C. in a 5% CO2 atmosphere.
Cell viability is measured by the use of a mitochondrial enzyme assay. After removal of the supernatant for the IL-2 assay, Cell Titer 96 (a commercial solution of MTT obtained from Promega, Madison, Wis.), is added to the plates and incubated for 4 hours at 37° C. A solubilization solution is then added and incubated overnight. The plates are then read on an ELISA plate reader at a wavelength of 570 nm. Table II presents the results for the lnterleukin-2 assay, the cell viability assay and the ratio of cell viability/IL-2 inhibition.

IL-2 production = test: Interleukin-2 assay: IL-2 production by PHA/TPA-stimulated cells (ELISA); type: cell-based, human; conditions: PHA 10 μg/mL and 10^-8 M TPA stimulation; 16-24 hours
Experimental: as §1, §2
After incubation (16-24 hours), the cells are assayed for IL-2 production and cell viability (MTT). IL-2 production is assayed utilizing a solid phase ELISA immunoassay, sold in kit form by R&D Systems, Inc., Minneapolis, Minn.

[3] = Percent change in body weight in the adjuvant-induced arthritis rat test; type: in vivo, rat (male Wistar-Lewis); conditions: between day 1 and day 21, arthritic CMC control 17.9, normal non-arthritic animals 32.0
Experimental: (§3) Following generally the procedure of Pearson and Wood, Arth. Rheum., 2, 44 (1959), the anti-inflammatory activity of the following compounds was determined in a rat model of adjuvant-induced arthritis. Male Wistar-Lewisrats (Mollegaard, Breeding Centre Ltd, BIBY, DK 4623 LI, SKENSVED, P.P. Box 28, DK) with a body weight between 160 g and 200 g are used. Freund's adjuvant (0.1 mL, 6 mg Mycobacterium smegmatis suspension per mL in heavy white paraffin oil, Merck/Darmstadt) was injected into the base of the tail. Between day 10 and day 14 of the test, immunopathological processes let to chronic inflammation, especially in the form of arthritic and periarthritic symptoms in all parts of the body. The animals received standardized food Altromin-R (Altrogge, Lage) and had free access to water. The compounds were administered i.p. (a suspension in carboxymethyl cellulose solution in an injection volume of 0.5 mL/100 g body weight) on 12 consecutive days, starting with the day of the adjuvant injection. On day 1 and day 18 of the study, the volume of both hind paws and the body weight were recorded, and in addition on day 18 the arthritis index. Cyclosporin A and Prednisolone were used as standard compounds. In addition, table IV presents the percent change in body weight (weight gain) between day 1 and day 21 of the above test.

lymphocyte proliferation = conditions: Yang et al. 1992, 1994; cited from earlier work
[4] = test system: rat model of adjuvant-induced arthritis; test: Anti-inflammatory activity in the rat model of adjuvant-induced arthritis; type: in vivo, rat (male Wistar-Lewis); conditions: 12 consecutive days
Experimental: as §3

For `C[C@@H](CO)[C@]12O[C@H]1[C@@H]1O[C@]13[C@]1(O[C@H]1C[C@H]1C4=C(CC[C@@]13C)C(=O)OC4)[C@@H]2O` [16-hydroxytriptolide], the immunosuppressive activity [1] is given as “increase in immunosuppressive activity relative to the sum of the effects”.

With “[1S-(1α, 2β, 3α, 3aβ,4aR, 4bα, 11β, 11aα)-3-chloro-1, 2,3,3a,4b,5,6,9,9b, 10,11,11a-dodecahydro-1,11a-dihydroxy-4b-methyl-2-(1-methylethyl)-2,11 -epoxy-7oxireno[4b,5]phenanthro[1,2-c]furan-7-one [Example 3]” the “IC50 /MTT” value [2] was > 1,000 ng/mL and the “IC50 /IL-2” value (IL-2 production) was 0.14 µg/mL.

In the case of `CC(C)[C@]12O[C@H]1[C@@H]1O[C@]13[C@]1(O[C@H]1C[C@H]1C4=C(CC[C@@]13C)C(=O)OC4)[C@@H]2O` [Triptolide], the “% Change in Body Weight (weight gain)” value ([3]; 0.2 mg/kg/day i.p.) is reported as 17.2%, the “% Change in Body Weight (weight gain)” value ([3]; 0.4 mg/kg/day i.p.) is reported as 22.0% and the “% Change in Body Weight (weight gain)” value ([3]; 0.8 mg/kg/day i.p.) is reported as 18.0%. The “IC50 /MTT” value [2] was 5 ng/mL (≈ 0.0139 µM), the suppress lymphocyte proliferation (lymphocyte proliferation) was “suppress lymphocyte proliferation” and the “% Inhibition” value ([4]; 0.2 mg/kg/day i.p.) was 70%. For the same compound, the “% Inhibition” value ([4]; 0.4 mg/kg/day i.p.) was 85% and the “% Inhibition” value ([4]; 0.8 mg/kg/day i.p.) was 76%.

For `CC(C)C12OC1C1OC13C1(C)CCC4=C(COC4=O)C1CCC3(O)C2O` (stereo not drawn) [Example 1, [5aR-(5aα,6α,6aα,7aα,7bβ,8aS*,8bα)]-3,3b,4,5,5a,6,6a,7a,7b,8b,9,10-dodecahydro-5a,6-dihydroxy-8b-methyl-6a-(1-methylethyl)-1H-bisoxireno[4b,5:6,7]phenanthro[1,2-c]furan-1-one], the “% Change in Body Weight (weight gain)” value ([3]; 10 mg/kg/day i.p.) was 29.9%, the “% Inhibition” value ([4]; 10 mg/kg/day i.p.) was 90% and the “IC50 /IL-2” value (IL-2 production) was 0.036 µg/mL (≈ 0.0993 µM).

For “[1S (1α, 2β,3α, 3aβ,4aR*,4bα, 11aα)1-3-chloro-1, 2,3,3a,4b,5,6,9,9b, 10,11,11a-dodecahydro-1,2,11a-trihydroxy-4b-methyl-2-(1 -methylethyl)-7H-oxireno[4b,5]phenanthro [1,2-c]furan-7-one [Example 2]”, the “IC50 /MTT” value [2] was 550 ng/mL and the “IC50 /IL-2” value (IL-2 production) was 0.06 µg/mL.

In the case of Cyclosporin A, the “% Change in Body Weight (weight gain)” value ([3]; 10 mg/kg/day i.p.) is reported as 27.2% and the “% Inhibition” value ([4]; 10 mg/kg/day i.p.) is reported as 100%.

With `C[C@]12C=CC(=O)C=C1CC[C@@H]1[C@@H]2[C@@H](O)C[C@@]2(C)[C@H]1CC[C@]2(O)C(=O)CO` [Prednisolone] the “% Change in Body Weight (weight gain)” value ([3]; 15 mg/kg/day i.p.) was 14.2% and the “% Inhibition” value ([4]; 15 mg/kg/day i.p.) was 100%.
